For eleven compounds, IC100, EC50 and IC50 results are on record in ChEMBL document CHEMBL1129502, “Betulinic acid and dihydrobetulinic acid derivatives as potent anti-HIV agents” (J Med Chem, 1996).

The subject of series [1] is Human immunodeficiency virus 1. As to the kind of experiment: Inhibitory activity against HIV-1-induced syncytia determined by fusion assay. Format: functional.
A short description of series [2]: Concentration inhibiting HIV-1 replication by 50% in infected H9 lymphocyte cells. Particulars: human, HIV-1-infected H9 lymphocyte cells; call rule not given here.
The test system of another series is H9. As to the kind of experiment: Inhibitory activity […] in mock infected H9 cells. The class given is functional, cell-based. Particulars: Homo sapiens.
For series [3], the system named is Human immunodeficiency virus 1. Put plainly: full Inhibitory activity against HIV-1-induced syncytia. Format: functional.
Series [4] has as its system HIV-1 reverse transcriptase (Human immunodeficiency virus 1). Put plainly: Inhibitory activity against HIV-RT; no inhibition.

`CC(C)[C@@H]1CC[C@]2(C(=O)O)CC[C@]3(C)[C@H](CC[C@@H]4[C@@]5(C)CC[C@H](OC(=O)CC(C)(C)CC(=O)O)C(C)(C)[C@@H]5CC[C@]43C)[C@@H]12`: the IC100 in series [1] was 33 µM. Also, in series [2], the concentration for a half-maximal effect (EC50) (commonly the concentration giving half of the maximal effect) turned out to be 5.7 µM. Besides, the IC50 (usually the concentration that inhibits the measured activity by half) in the series on H9 amounted to 5.8 µM.
With `CC(C)[C@@H]1CC[C@]2(C(=O)O)CC[C@]3(C)[C@H](CC[C@@H]4[C@@]5(C)CC[C@H](OC(=O)CC(C)(C)C(=O)O)C(C)(C)[C@@H]5CC[C@]43C)[C@@H]12`, the IC100 in series [1] worked out at 34 µM. Moreover, in series [2], the EC50 is < 3.5 µM. In the series on H9, this compound registered an IC50 of 4.9 µM.
Take `CC(C)[C@@H]1CC[C@]2(C(=O)O)CC[C@]3(C)[C@H](CC[C@@H]4[C@@]5(C)CC[C@H](OC(=O)C(C)(C)CC(=O)O)C(C)(C)[C@@H]5CC[C@]43C)[C@@H]12`: in series [2], the EC50 was 0.56 µM. The same compound displayed an IC50 with H9 of 7.7 µM.
Turning to `C=C(C)[C@@H]1CC[C@]2(C(=O)O)CC[C@]3(C)[C@H](CC[C@@H]4[C@@]5(C)CC[C@H](O)C(C)(C)[C@@H]5CC[C@]43C)[C@@H]12` [BETULINIC ACID], the IC100 in series [1] was >219 µM. Besides, in series [2], the EC50 came to 1.4 µM. Half-maximal inhibition with H9 (IC50) was put at 13 µM.
On the same counts, the results for `CC(C)[C@@H]1CC[C@]2(C(=O)O)CC[C@]3(C)[C@H](CC[C@@H]4[C@@]5(C)CC[C@H](OC(=O)COCC(=O)O)C(C)(C)[C@@H]5CC[C@]43C)[C@@H]12` are 70 µM, 5.6 µM and 13.1 µM.
On the same counts, the results for `C=C(C)[C@@H]1CC[C@]2(C(=O)O)CC[C@]3(C)[C@H](CC[C@@H]4[C@@]5(C)CC[C@H](OC(=O)C(C)(C)CC(=O)O)C(C)(C)[C@@H]5CC[C@]43C)[C@@H]12` are 34 µM, 2.7 µM and 15.9 µM.
On the same counts, the results for `C=C(C)[C@@H]1CC[C@]2(C(=O)O)CC[C@]3(C)[C@H](CC[C@@H]4[C@@]5(C)CC[C@H](OC(=O)COCC(=O)O)C(C)(C)[C@@H]5CC[C@]43C)[C@@H]12` are 70 µM, 0.01 µM and 11.7 µM.
The compound `C=C(C)[C@@H]1CC[C@]2(C(=O)O)CC[C@]3(C)[C@H](CC[C@@H]4[C@@]5(C)CC[C@H](OC(=O)CC(C)(C)CC(=O)O)C(C)(C)[C@@H]5CC[C@]43C)[C@@H]12` registered an IC100 in series [1] of 50 µM. This compound also gave an EC50 in series [2] of 2.3 µM. For the same compound, 4.5 µM corresponded to half-maximal inhibition with H9 (IC50).
Compound `CC(C)[C@@H]1CC[C@]2(C(=O)O)CC[C@]3(C)[C@H](CC[C@@H]4[C@@]5(C)CC[C@H](O)C(C)(C)[C@@H]5CC[C@]43C)[C@@H]12` [DIHYDROBETULINIC ACID] came in with an EC50 in series [2] of 0.9 µM. For the same compound, in series [3], the IC100 was >218 µM. Also, the concentration for half-maximal inhibition (IC50) in the series on H9 was 12.6 µM.
In turn, `C=C(C)[C@@H]1CC[C@]2(C(=O)O)CC[C@]3(C)[C@H](CC[C@@H]4[C@@]5(C)CC[C@H](OC(=O)CC(C)(C)C(=O)O)C(C)(C)[C@@H]5CC[C@]43C)[C@@H]12` [BEVIRIMAT] registered an IC100 in series [1] of 34 µM. For the same compound, in series [2], the EC50 was < 3.5 µM. The same compound gave an IC50 with H9 of 7 µM.
Compound `C=C(C)[C@@H]1CC[C@]2(C(=O)NCCCCCCCC(=O)N[C@@H](CC(C)C)[C@@H](O)CC(=O)O)CC[C@]3(C)[C@H](CC[C@@H]4[C@@]5(C)CC[C@H](O)C(C)(C)[C@@H]5CC[C@]43C)[C@@H]12` displayed an EC50 in series [2] of 0.03 µM. Moreover, the IC100 in series [3] amounted to 3 µM. Further, the values for the IC50 result (in series [4]; in the series with H9) were “Not Active” and 2.7 µM, respectively.
